Turning to `CCCc1c(OCc2cccc(C(=O)O)c2)ccc(C(C)=O)c1O`, the melting point is 216 to 220 °C. For the compound `CC(=O)Nc1c(C(=O)c2ccc3ccccc3c2)[nH]c2cc(Cl)ccc12`, the melting point lay within 167 to 169 °C.

For the compound `ClCC1COC(Cc2ccc(Cl)cc2)(c2ccccc2)O1` (centres undefined), the melting point was determined as 65 °C.

In the case of `CC(=O)Nc1c(C(=O)c2ccccc2)[nH]c2ccc(NS(C)(=O)=O)cc12`, the melting point is 260 to 261 °C. `COc1cc2nc(S(=O)(=O)Nc3c(Cl)cccc3Cl)nn2c(OC)n1` had a melting point of 211 to 212 °C. As to `CCCCCc1ccc(-c2ccc(-c3c(C(=O)OC)c4c(c5ccccc35)OC(c3ccccc3)(c3ccc(N(CC)CC)cc3)C=C4)cc2)cc1` (centres undefined), the melting point was in the range of 177 to 178 °C. The compound `CCCNS(=O)(=O)c1ccc(Nc2nc(OCC3CCCCC3)c3nc[nH]c3n2)cc1` yielded a melting point of 207 to 208 °C. `CC1C(c2ccccc2)OC(C)(C)N1C(=O)C(Cl)Cl` (centres undefined) had a melting point of 126 °C. In turn, `C=CC(=O)Oc1ccc(CNS(C)(=O)=O)cc1` registered a melting point of 112 to 115 °C.

As to `O=C1Cc2c3c(cc4ccccc24)N(c2ccccc2)C(=O)CN13`, the melting point was in the range of 296 to 300 °C. `COc1ccc(Cc2nc3cccc([N+](=O)[O-])c3o2)cc1OC1CCCC1` registered a melting point of 95 to 98.5 °C. Turning to `COc1ccc(-c2sc3c(c2C)c(=O)c(CO)cn3Cc2ccccc2F)cc1`, the melting point lay within 159 to 160 °C.

With `O[C@@H]1CN=C(c2cccs2)O[C@H]1c1ccccc1` (racemic), the melting point was determined as 158 °C. `Cc1cccc(-c2nc(-c3ccc(S(C)=O)cc3)sc2-c2cc(C)nc(C)c2)c1` (centres undefined) yielded a melting point of 133 to 134 °C.

For the compound `c1ccc(NC(Nc2ccccc2)Nc2ccccc2)cc1`, the melting point is 138 to 139 °C. For `CC(C)(C)OC(=O)NCC1Cc2ccc(CC(=O)O)cc2C1` (centres undefined) the value was 123 to 124 °C; for `COC(=O)c1ccc2ccc(C(C)=O)cc2c1`, 103 to 105 °C. Compound `CC(=O)Oc1c(C)c(C)c2c(c1C)C(c1ccc(F)cc1)C(C)(C)O2` (centres undefined) registered a melting point of 86 to 87 °C. As for `COc1nc(Nc2ccc(F)cc2F)c(C(=O)O)cc1F`, the figure is 237 to 240 °C; as for `C=CCn1c(NC)n[nH]c1=S`, 129 to 131 °C.

For the compound `COC(=O)c1ccc2cc(-c3ccc(C(C)(C)C)cc3)oc2c1`, the melting point came out at 148 °C. On to `Cc1ncccc1CN(CCn1cc(C)c2occc2c1=O)Cc1ccc2c(c1)N(CC(C)C)C(=O)C(C)(C)C(=O)N2`, for which the melting point lay within 206 to 208 °C. `O=C(Cc1ccccc1)c1ccc(SCC(F)(F)F)cc1` registered a melting point of 60 to 61 °C.

Regarding `CCCc1nnc2n1N=C(c1ccc([N+](=O)[O-])cc1)c1cc(OC)c(Br)cc1C2`, the melting point lay in the range of 238 to 240 °C.

The compound `CC(C)(C)OC(=O)N1CC=C(C2=C(C#N)C(c3cccc4nonc34)c3c[nH]nc3N2)CC1` (centres undefined) displayed a melting point of 222 °C. For `Cc1ccc(C2=CCNCC2)nc1`, the melting point lay in the range of 78 to 80 °C. The compound `C=C(CC)C(=O)c1ccc(OCC(=O)O)c(Cl)c1` had a melting point of 83.5 to 85.5 °C. `O=C1NCN=C(c2ccccc2)c2ccccc21` displayed a melting point of 215 °C.

Compound `O=c1c2c(Cc3ccc(OC(F)(F)F)cc3)n[nH]c2c2cccnc2n1-c1ccccc1` showed a melting point of 216 to 218 °C.

As for `CCCCNc1cc(-c2nc(N)n[nH]2)ccn1`, the melting point was in the range of 268 to 270 °C. As to `CN1CCN(C(=O)Nc2cccc3nc(NC4CCc5ccccc54)ccc23)CC1` (centres undefined), the melting point turned out to be 142 °C.

`CN(C)C=C1C(=O)N(c2cccc(O)c2)c2ccccc21` gave a melting point of 200 to 203 °C. As for `Cc1nc(-n2ccccc2=O)sc1C(=O)NCc1cccnc1`, the melting point is 218 to 220 °C. For `Cc1ccc2c(cc(CCCC(=O)O)n2S(=O)(=O)c2ccc3ncsc3c2)n1` the value was 67 to 70 °C. As for `CCN(CC)C(=O)c1cc[nH]c1C`, the figure is 120 to 121 °C; as for `OC1CCN(c2ncc(-c3ccc(Cl)cc3Cl)cn2)CC1`, 122 to 124 °C.

With `COc1cc(C=Cc2ccccc2)cc(OC)c1`, the melting point came to 56.4 °C. Compound `COc1cc([N+](=O)[O-])ccc1S(=O)(=O)Nc1ccc(C)cc1` registered a melting point of 126 to 129 °C. `CC(C)(C)OC(=O)N1CCCC1C(=O)Nc1ccc(-n2nc(C(F)(F)F)cc2C(F)(F)F)cc1` (centres undefined) displayed a melting point of 70 to 72 °C. Compound `CCCNc1c(C#N)cnn1-c1ccc(Cl)c(Cl)c1Cl` yielded a melting point of 95 to 98 °C. On to `CN(C(=O)CCCOc1ccc2c(c1)CN1CC(=O)NC1=N2)C1CCCCC1`, for which the melting point is 243 to 244 °C.

`O=S1(=O)c2cccc3c(Cl)cc(Cl)c(c23)N1CCCN1CC=C(c2ccccc2)CC1`: the melting point stood at 126 °C. As to `O=C(O)C1C=Nc2c(cc(F)cc2[N+](=O)[O-])C1=O` (centres undefined), the melting point lay within 254 to 256 °C. For the compound `CC1(C)CCC2=C(O1)c1ccccc1C1(OCC(CO)O1)C2=O` (centres undefined), the melting point lay in the range of 44 to 46 °C. `CN(C)CCNC(=O)c1cn(C)c(=O)c2nc3ccccc3nc12` yielded a melting point of 215 to 218 °C. The compound `Nc1ccccc1C(=O)CCCO` yielded a melting point of 58 to 61 °C. Compound `O=C(NCCCOc1ccncc1)c1cccs1` displayed a melting point of 123 to 125 °C. In the case of `N#CC1=CC(Br)=NC1(N)C#N` (centres undefined), the melting point was more than 210 °C. Compound `COc1ccccc1N1CCN([C@H]2Cc3c(OC)ccc(OC)c3C[C@H]2O)CC1` (relative stereo) had a melting point of 213 to 216 °C. With `FC(F)(F)c1ccc(Sc2nc(-c3ccccc3)c(-c3ccccc3)[nH]2)cc1`, the melting point is 227 to 229 °C. Turning to `Nc1c(F)c(-c2ccc(C(F)(F)F)nc2)nc(C=O)c1Cl`, the melting point lay in the range of 147 to 149 °C. In turn, `COc1c(OCc2ccccc2)ccc2[nH]ccc(=O)c12` displayed a melting point of 180 °C.

Consider `C#CC(Oc1cc(C(=O)OC)cc(OC)c1OC)C1CC1` (centres undefined), for which the melting point fell in the range of 93 to 94 °C. For `O=C(NCCCn1cncn1)c1ccc(I)cc1` the value was 132 to 134 °C; for `C=CCN(CC=C)c1nc(NC(=O)c2ccccc2)n2oc(=O)nc2n1`, 174 to 175 °C. As for `CCc1c(Oc2cc(C)cc(C)c2)n(CC2CC=CC2)c(=O)[nH]c1=O`, the figure is 179 to 180 °C.

In turn, `CC(=O)c1ccc(CCNS(=O)(=O)c2ccc(C)cc2)cc1` gave a melting point of 124 to 126 °C. For `CC(C)C(O)(c1ccccc1)c1cc(Cl)ccc1O` (centres undefined) the value was 114 °C; for `CC(C)(C)OC(=O)NC(COCCCN)(COCCCN)COCCCN`, 96 to 98 °C; for `OP(O)C(NC(c1ccccc1)c1ccccc1)c1c[nH]c2ccccc12` (centres undefined), 154 °C.

For the compound `O=C(CBr)c1ccc(OCc2ccccc2)c(OCc2ccccc2)c1Cl`, the melting point is 94 to 96 °C. Take `N#CC[C@@H]1CC[C@@H]2CN(c3noc4ccccc34)CCN2C1` (relative stereo): the melting point is 184 to 186 °C. `CN(C)C(=O)Nc1cnc(N(C)C)c(Cl)c1` displayed a melting point of 139 to 141 °C.

In turn, `Cc1ccc(CN(C)CCOc2ccc(NC(=O)c3cccc4c(=O)c5ccccc5[nH]c34)cc2)cc1` showed a melting point of 168 °C. With `O=C1c2ccccc2C(=O)N1CCCCCCN1CCC(c2nc(-c3ccncc3)c(-c3ccc(Cl)c(Cl)c3)[nH]2)CC1`, the melting point lay in the range of 129 to 134 °C.

Compound `Cc1nc(Cc2ccccc2)c(CO)c(CO)c1O` had a melting point of 158 to 159 °C. `CCOC(=O)C(=C(c1ccc(F)cc1)c1ccc(F)cc1)n1nnnc1C` came in with a melting point of 103 to 104 °C.

`CC(C)(C)c1cc2c(Cl)ncnc2o1` gave a melting point of 72 to 74 °C.

The compound `COC(=O)c1cc([N+](=O)[O-])cc(-c2ccc(NC(=O)OC(C)(C)C)cc2)c1C` gave a melting point of 131 to 132 °C.

Consider `COC(=O)c1cc2cc([N+](=O)[O-])cc(O)c2o1`, for which the melting point fell in the range of 252 to 253 °C. `CCOC(=O)C1=C(C)NC(C#N)=C(C(=O)OCC)C1c1ccccc1C(F)(F)F` (centres undefined) came in with a melting point of 140 to 143 °C.

As for `CC(=O)OCC1OC(n2cc(C(I)=CI)c(=O)[nH]c2=O)C(OC(C)=O)C1OC(C)=O` (centres undefined), the melting point was in the range of 83 to 85 °C. `COC(=O)c1cc2ccoc2nc1C1=NC(C)(C(C)C)C(=O)N1` (centres undefined) registered a melting point of 134 to 137 °C. In the case of `CCOC(=O)C1COc2cc(OC(C)=O)ccc2O1` (centres undefined), the melting point was 66 °C. As to `COc1cc2c3c(n(C(=O)c4ccccc4)c2cc1OC)CCC(C(=O)O)C3` (centres undefined), the melting point was in the range of 191 to 194 °C. `COc1ccccc1-c1nc(C)c(C(N)=O)s1`: the melting point fell in the range of 191 to 192 °C.

As for `O=C(Cl)c1cccnc1Oc1cccc(Cl)c1`, the melting point was in the range of 72 to 74 °C. In turn, `Cc1ccc(C(=O)Nc2ccc(CN(C)C)c(C(F)(F)F)c2)cc1-c1ccc2cnncc2c1` showed a melting point of 156 to 157 °C. As for `COc1ccc(CCN(C)CCOc2ccc(NC(=O)c3cccc4c3Nc3ccccc3S4)cc2)cc1OC`, the melting point is 90 °C. Consider `Cc1cc2c(c(C(C)(C)C)c1)OC(=O)C2c1ccc2c(c1)c1ccccc1n2C` (centres undefined), for which the melting point is 84 to 90 °C. Compound `NC(=S)N(c1ccccc1)c1cccc(NNC=O)c1` came in with a melting point of 143 to 145 °C. On to `COC(=O)CCC(=O)Nc1cccc(COc2ccc(C(C)=O)c(O)c2)c1`, for which the melting point lay within 121 to 123 °C.

Regarding `N#CNC(=Nc1cccnc1)NC1CCN(Cc2ccccc2)CC1`, the melting point lay in the range of 173 to 174 °C. Take `CC(C)(C)OC(=O)N1CO[C@@](O[Si](C)(C)C)(C(F)(F)F)[C@@H]1Cc1ccccc1`: the melting point was 53 to 55 °C. For `CN1CC(CCN2CCN(c3ccc(Cl)cc3)CC2)OC1=O` (centres undefined), the melting point lay in the range of 113 to 114 °C.

Regarding `COC(=O)c1c(-c2nccn2C)c2cnc(N3CCC[C@H]3CO)nc2n(Cc2ccc(OC)c(Cl)c2)c1=O`, the melting point lay in the range of 142 to 145 °C. As for `CCCCn1c(=O)c2nn(S(=O)(=O)c3ccc(C(C)(C)C)cc3)cc2n(CCCC)c1=O`, the figure is 158 to 159 °C; as for `CN(C)Cc1cccc(CSCCNC2=NS(=O)N=C2N)c1` (centres undefined), 122 to 125 °C. Take `Cc1noc(C)c1-c1nn(C(C)c2oc3ccccc3c(=O)c2-c2cccc(F)c2)c2ncnc(N)c12` (centres undefined): the melting point lay in the range of 218 to 222 °C.

A word on the melting point: it is the temperature, or range, at which the solid turns liquid.

These data come from a melting point compilation (Tetko et al.; mined from patent text by program, amines drawn as free bases though some values may be those of a salt).
